In assay [1] the target is Beta-2 adrenergic receptor (Homo sapiens, UniProt P07550). The assay can be described thus: DRUGMATRIX: Adrenergic beta2 radioligand binding (ligand: [3H] CGP-12177). In kind it is cell membranes, CHO, Membrane. As to conditions: cho; Not Active = under 50% inhibition at 10 µM.
The nature of assay [2]: DRUGMATRIX: Atrial Natriuretic Factor (ANF) radioligand binding (ligand: [125I] ANF (rat)). In kind it is cell membranes, Cavia porcellus, Dunkin-Hartley, Adrenal gland, Membrane. As to conditions: Not Active = under 50% inhibition at 10 µM.
For another assay, the target named is T1, Caspase-1 (Homo sapiens, UniProt P29466).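 Also: Caspase-1 enzyme inhibition assay with a peptide substrate; in other assays of this panel Not Active means under 50% inhibition at 10 µM.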
T1 sequence (P29466 whole entry): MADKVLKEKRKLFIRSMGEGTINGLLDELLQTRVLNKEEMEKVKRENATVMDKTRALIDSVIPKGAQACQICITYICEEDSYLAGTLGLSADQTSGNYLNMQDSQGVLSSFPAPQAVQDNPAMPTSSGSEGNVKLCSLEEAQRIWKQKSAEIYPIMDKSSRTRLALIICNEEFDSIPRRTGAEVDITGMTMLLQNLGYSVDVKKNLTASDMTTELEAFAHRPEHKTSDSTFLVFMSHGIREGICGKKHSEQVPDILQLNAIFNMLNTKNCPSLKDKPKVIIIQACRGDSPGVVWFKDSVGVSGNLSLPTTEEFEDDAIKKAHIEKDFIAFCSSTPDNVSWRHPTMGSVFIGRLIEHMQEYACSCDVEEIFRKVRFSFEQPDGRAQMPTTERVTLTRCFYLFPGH
Set-up: species or system Escherichia coli.

A further assay addresses D(3) dopamine receptor (Homo sapiens, UniProt P35462). Briefly: DRUGMATRIX: Dopamine D3 radioligand binding (ligand: [3H] Spiperone). It is filed as cell membranes, CHO, Membrane. As to conditions: for Ki: read-out: Ki.
Another assay deals with Carbonic anhydrase 2 (Homo sapiens, UniProt P00918). Briefly: DRUGMATRIX: Carbonic Anhydrase II enzyme inhibition (substrate: 4-Nitrophenyl acetate (4-NPA)). In kind it is tissue-based, Erythrocyte. As to conditions: erythrocyte; Not Active = under 50% inhibition at 10 µM.
The target of another assay is Melanocortin receptor 5 (Homo sapiens, UniProt P33032). It is filed as cell membranes, HEK293, Membrane. The conditions noted are these: hek293. Also: in other assays of this panel Not Active means under 50% inhibition at 10 µM.
Chain of Melanocortin receptor 5 (P33032 whole entry): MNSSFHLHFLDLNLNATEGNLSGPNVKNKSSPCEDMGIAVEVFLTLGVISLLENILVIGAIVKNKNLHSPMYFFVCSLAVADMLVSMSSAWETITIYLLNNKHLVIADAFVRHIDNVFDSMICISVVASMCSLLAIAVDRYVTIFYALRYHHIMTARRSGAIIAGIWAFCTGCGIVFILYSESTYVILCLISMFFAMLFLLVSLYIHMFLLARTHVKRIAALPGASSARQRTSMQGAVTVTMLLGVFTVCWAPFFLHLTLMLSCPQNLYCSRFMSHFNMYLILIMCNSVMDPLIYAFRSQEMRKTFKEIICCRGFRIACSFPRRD

Chain of D(3) dopamine receptor (P35462 whole entry): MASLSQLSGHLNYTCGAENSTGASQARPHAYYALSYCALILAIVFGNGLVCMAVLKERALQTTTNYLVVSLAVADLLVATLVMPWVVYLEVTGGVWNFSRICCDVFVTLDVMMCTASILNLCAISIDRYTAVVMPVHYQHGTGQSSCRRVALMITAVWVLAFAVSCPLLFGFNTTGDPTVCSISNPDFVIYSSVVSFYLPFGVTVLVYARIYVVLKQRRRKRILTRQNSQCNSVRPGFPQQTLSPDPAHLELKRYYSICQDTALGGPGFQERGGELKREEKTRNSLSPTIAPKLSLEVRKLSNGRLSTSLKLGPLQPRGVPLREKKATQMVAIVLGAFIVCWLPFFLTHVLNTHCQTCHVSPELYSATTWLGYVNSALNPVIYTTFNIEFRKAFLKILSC
Chain of Beta-2 adrenergic receptor (P07550 whole entry): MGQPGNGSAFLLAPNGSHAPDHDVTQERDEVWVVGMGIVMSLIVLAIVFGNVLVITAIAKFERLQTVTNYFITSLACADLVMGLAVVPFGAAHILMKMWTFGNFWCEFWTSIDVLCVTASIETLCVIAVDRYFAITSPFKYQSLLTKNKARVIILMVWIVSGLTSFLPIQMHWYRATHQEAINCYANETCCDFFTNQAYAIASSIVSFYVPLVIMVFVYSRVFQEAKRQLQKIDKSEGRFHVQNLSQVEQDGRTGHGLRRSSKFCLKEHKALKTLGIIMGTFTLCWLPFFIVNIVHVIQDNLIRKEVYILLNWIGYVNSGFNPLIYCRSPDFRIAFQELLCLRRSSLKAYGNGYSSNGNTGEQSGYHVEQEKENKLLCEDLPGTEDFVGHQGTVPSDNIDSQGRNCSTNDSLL

Consider `CN1CCN(c2c(F)cc3c(=O)c(C(=O)O)cn(CCF)c3c2F)CC1` [FLEROXACIN], for which the 50% inhibitory concentration (IC50) entry (in assay [1]; in assay [2]; against Caspase-1; on D(3) dopamine receptor (cho); against Carbonic anhydrase 2; at Melanocortin receptor 5) was “Not Active” in each case. Also, the Ki (commonly a dissociation constant, usually derived from enzyme kinetics or from competition with a known ligand) in assay [2] is given as “Not Active”.

With `O=c1[nH]c(=O)n([C@H]2C[C@H](O)[C@@H](CO)O2)cc1F` [FLOXURIDINE], the IC50 result (in assay [1]; in assay [2]; on Caspase-1; on D(3) dopamine receptor (cho); against Carbonic anhydrase 2; at Melanocortin receptor 5) was “Not Active” each time. In assay [2], the Ki result was “Not Active”.

As to `COC(=O)Nc1nc2cc(C(=O)c3ccc(F)cc3)ccc2[nH]1` [FLUBENDAZOLE], the IC50 entry (in assay [1]; in assay [2]; against Caspase-1; at D(3) dopamine receptor (cho); on Carbonic anhydrase 2; against Melanocortin receptor 5) was “Not Active” each time. In addition, the Ki entry in assay [2] is “Not Active”.

On to `CC(=O)OCC(=O)[C@@]1(O)CC[C@H]2[C@@H]3CCC4=CC(=O)CC[C@]4(C)[C@@]3(F)[C@@H](O)C[C@@]21C` [FLUDROCORTISONE ACETATE], for which the IC50 result (in assay [1]; in assay [2]; at Caspase-1; at D(3) dopamine receptor (cho); on Carbonic anhydrase 2; against Melanocortin receptor 5) was “Not Active” each time. Further, the inhibition constant (Ki) result in assay [2] was “Not Active”.

For the molecule `CCOC(=O)c1ncn2c1CN(C)C(=O)c1cc(F)ccc1-2` [FLUMAZENIL], the IC50 result (in assay [1]; in assay [2]; on Caspase-1; on D(3) dopamine receptor (cho); against Carbonic anhydrase 2; on Melanocortin receptor 5) was “Not Active” each time. Moreover, the Ki result in assay [2] was “Not Active”.

For the molecule `CC(=O)OCC(=O)[C@@]12OC(C)(C)O[C@@H]1C[C@H]1[C@@H]3C[C@H](F)C4=CC(=O)C=C[C@]4(C)[C@@]3(F)[C@@H](O)C[C@@]12C` [FLUOCINONIDE], the half-maximal inhibitory concentration (IC50) entry (in assay [1]; in assay [2]; at Caspase-1; on D(3) dopamine receptor (cho); at Carbonic anhydrase 2; against Melanocortin receptor 5) was “Not Active” throughout. For the same molecule, in assay [2], the Ki result is reported as “Not Active”.

As to `O=C(O)P(=O)(O)O` [FOSCARNET], the IC50 entry (in assay [1]; in assay [2]; at Caspase-1; on D(3) dopamine receptor (cho); against Carbonic anhydrase 2; against Melanocortin receptor 5) was “Not Active” in each case. In addition, the Ki result in assay [2] was “Not Active”.

Take `Cc1ccc(C)c(OCCCC(C)(C)C(=O)O)c1` [GEMFIBROZIL]: the IC50 result (in assay [1]; in assay [2]; at Caspase-1; at D(3) dopamine receptor (cho); on Carbonic anhydrase 2; on Melanocortin receptor 5) was “Not Active” throughout. Moreover, the Ki entry in assay [2] is reported as “Not Active”.

In the case of `O=c1c(-c2ccc(O)cc2)coc2cc(O)cc(O)c12` [GENISTEIN], the IC50 entry (in assay [1]; in assay [2]; on Caspase-1; on D(3) dopamine receptor (cho); on Carbonic anhydrase 2; at Melanocortin receptor 5) was “Not Active” each time. For the same molecule, the Ki entry in assay [2] is recorded as “Not Active”.

Take `CCC1=C(C)CN(C(=O)NCCc2ccc(S(=O)(=O)NC(=O)N[C@H]3CC[C@H](C)CC3)cc2)C1=O` [GLIMEPIRIDE]: the IC50 result (in assay [1]; in assay [2]; on Caspase-1; at D(3) dopamine receptor (cho); on Carbonic anhydrase 2; against Melanocortin receptor 5) was “Not Active” each time. For the same molecule, the Ki result in assay [2] was “Not Active”.

On to `Nc1cc(-c2ccncc2)c[nH]c1=O` [INAMRINONE], for which the IC50 entry (in assay [1]; in assay [2]; on Caspase-1; on D(3) dopamine receptor (cho); against Carbonic anhydrase 2; at Melanocortin receptor 5) was “Not Active” throughout. The Ki entry in assay [2] is given as “Not Active”.

With `CCCCC1=NC2(CCCC2)C(=O)N1Cc1ccc(-c2ccccc2-c2nnn[nH]2)cc1` [IRBESARTAN], the IC50 entry (in assay [1]; in assay [2]; at Caspase-1; on D(3) dopamine receptor (cho); against Carbonic anhydrase 2; against Melanocortin receptor 5) was “Not Active” each time. Besides, the Ki result in assay [2] is “Not Active”.

On to `CN1CCC(=C2c3ccccc3CC(=O)c3sccc32)CC1` [KETOTIFEN], for which the IC50 (in general, the concentration that gives 50% inhibition) in assay [1] was “Not Active”; in assay [2], “Not Active”; against Caspase-1, “Not Active”; on D(3) dopamine receptor (read-out: IC50), 1960 nM; at Carbonic anhydrase 2, “Not Active”; at Melanocortin receptor 5 it was “Not Active”. The Ki entry in assay [2] was “Not Active”; on D(3) dopamine receptor it was 667 nM.

With `N[C@@H](Cn1ccc(=O)c(O)c1)C(=O)O` [L-MIMOSINE], the IC50 result (in assay [1]; in assay [2]; against Caspase-1; on D(3) dopamine receptor (cho); against Carbonic anhydrase 2; against Melanocortin receptor 5) was “Not Active” throughout. The Ki result in assay [2] is “Not Active”.

Take `C[N+](C)(C)C[C@H](O)CC(=O)[O-]` [LEVOCARNITINE]: the IC50 result (in assay [1]; in assay [2]; on Caspase-1; at D(3) dopamine receptor (cho); against Carbonic anhydrase 2; on Melanocortin receptor 5) was “Not Active” throughout. The Ki result in assay [2] was “Not Active”.

As for `C[C@H]1COc2c(N3CCN(C)CC3)c(F)cc3c(=O)c(C(=O)O)cn1c23.C[C@H]1COc2c(N3CCN(C)CC3)c(F)cc3c(=O)c(C(=O)O)cn1c23.O` [LEVOFLOXACIN], the IC50 entry (in assay [1]; in assay [2]; against Caspase-1; at D(3) dopamine receptor (cho); against Carbonic anhydrase 2; on Melanocortin receptor 5) was “Not Active” each time. Moreover, the Ki result in assay [2] is “Not Active”.

In the case of `CCn1cc(C(=O)O)c(=O)c2cc(F)c(N3CCNC(C)C3)c(F)c21` (configuration not stated) [LOMEFLOXACIN], the IC50 result (in assay [1]; in assay [2]; at Caspase-1; on D(3) dopamine receptor (cho); against Carbonic anhydrase 2; on Melanocortin receptor 5) was “Not Active” each time. Besides, the Ki result in assay [2] was “Not Active”.

As for `CN1CCCC(CN2c3ccccc3Sc3ccccc32)C1` (configuration not stated) [MEPAZINE], the IC50 result was “Not Active” in assay [1]; “Not Active” in assay [2]; “Not Active” against Caspase-1; 2010 nM at D(3) dopamine receptor (read-out: IC50); “Not Active” on Carbonic anhydrase 2; “Not Active” on Melanocortin receptor 5. The Ki entry in assay [2] was “Not Active”; on D(3) dopamine receptor, 681 nM.

With `Cc1cccc(C)c1NC(=O)C1CCCCN1C` (configuration not stated) [MEPIVACAINE], the IC50 entry (in assay [1]; in assay [2]; against Caspase-1; at D(3) dopamine receptor (cho); on Carbonic anhydrase 2; on Melanocortin receptor 5) was “Not Active” in each case. Further, in assay [2], the Ki entry is reported as “Not Active”.

`CN(C)C(=N)NC(=N)N` [METFORMIN]: the IC50 result (in assay [1]; in assay [2]; on Caspase-1; on D(3) dopamine receptor (cho); against Carbonic anhydrase 2; at Melanocortin receptor 5) was “Not Active” each time. Further, the Ki entry in assay [2] was “Not Active”.

The values are drawn from ChEMBL document CHEMBL1909046, “DrugMatrix in vitro pharmacology data”.
